Data from ChEMBL document CHEMBL1156717, “Synthesis and biological evaluation of pyrazoline analogues with beta-amino acyl group as dipeptidyl peptidase IV inhibitors” (Eur J Med Chem, 2008).

These molecules were tested against CYP3A4 (Homo sapiens, UniProt P08684) (assay: Inhibition of CYP3A4 at 10 uM by fluorimetry assay in presence of NADP; values are per cent of control).
Sequence of CYP3A4 (P08684 whole entry): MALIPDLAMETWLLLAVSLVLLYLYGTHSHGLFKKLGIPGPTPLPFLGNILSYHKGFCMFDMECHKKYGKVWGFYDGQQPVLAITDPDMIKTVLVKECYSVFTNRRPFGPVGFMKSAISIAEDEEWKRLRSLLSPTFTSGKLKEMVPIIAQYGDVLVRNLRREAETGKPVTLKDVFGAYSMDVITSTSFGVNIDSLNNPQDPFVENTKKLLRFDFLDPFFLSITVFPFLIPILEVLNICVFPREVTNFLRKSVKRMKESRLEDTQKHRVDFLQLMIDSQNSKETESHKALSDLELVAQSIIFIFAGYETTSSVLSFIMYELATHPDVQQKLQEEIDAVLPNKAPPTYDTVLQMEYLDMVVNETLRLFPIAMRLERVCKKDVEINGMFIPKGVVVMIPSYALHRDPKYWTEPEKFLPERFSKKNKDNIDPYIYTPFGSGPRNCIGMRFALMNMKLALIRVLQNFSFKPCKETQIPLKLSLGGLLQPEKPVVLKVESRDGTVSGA

| SMILES | residual activity at 10 µM [%] |
| --- | --- |
| Nc1ccc(CNC(=O)C2CC=NN2C(=O)C[C@H](N)Cc2cc(F)c(F)cc2F)cc1 (stereo not given in full) | 4.5 |
| N[C@@H](CC(=O)N1N=CCC1C(=O)NCc1ccccc1)Cc1cc(F)c(F)cc1F (stereo not given in full) | 18.8 |

Continued, values first:

| residual activity at 10 µM [%] | SMILES |
| --- | --- |
| 59.3 | N[C@@H](CC(=O)N1N=CCC1C(=O)Nc1ccc(OCC(=O)O)cc1)Cc1cc(F)c(F)cc1F (stereo not given in full) |
| 6.9 | CCOC(=O)COc1ccc(NC(=O)C2CC=NN2C(=O)C[C@H](N)Cc2cc(F)c(F)cc2F)cc1 (stereo not given in full) |
| 62 | N[C@@H](CC(=O)N1N=CCC1C(=O)NCc1ccc(C(=O)O)cc1)Cc1cc(F)c(F)cc1F (stereo not given in full) |
